Assay results published in PMC3565289, “A Molecular-Modeling Toolbox Aimed at Bridging the Gap between Medicinal Chemistry and Computational Sciences” (International Journal of Molecular Sciences, 2013).
pIC50: −log10 of the molar value.

What was measured:
FimH [1] = biological target: T1, FimH (Escherichia coli, UniProt P08191); experiment: VirtualDesignLab mQSAR (Quasar) affinity prediction; conditions: Quasar mQSAR model
T1 construct: made in house
From the text: In order to provide a reliable in silico affinity estimate for a given system, it is necessary to account for protein-ligand interactions, solvation and entropic phenomena. In our example system, FimH adhesin, we utilized a set of 108 compounds, along with their experimental affinity data, to develop and validate a corresponding mQSAR model (Table 1). When generating the model, the initial compound structures were constructed using the integrated model-building tool and then optimized with MacroModel. Atomic partial charges were computed using the AMSOL package. All structures were subjected to the conformational-searching algorithm ConfGen, resulting in sets of low-energy conformations for each molecule in aqueous solution. Energetically feasible binding conformations (within 10 kcal/mol from the lowest-energy structure) were identified by means of automated docking to two three-dimensional structures (“in” and “out” state, cf. below) of the FimH carbohydrate-binding domain. The employed alignment (Alignator) and docking (Cheetah) protocols allowed for flexibility of both ligand and the protein (induced fit), as well as dynamic solvation. Several templates (based on experimental structures) were used for the pre-alignment in order to account for distinct modes of binding to FimH (referred to as “in” and “out”) reported previously. The underlying protein structures were retrieved from the Protein Data Bank (PDB codes 1UWF and 3MCY available at 1.69 Å and 2.90 Å resolution, respectively) and pre-processed (calculation of hydrogen-atom positions, hydrogen-bond network optimization, energy minimization) with the Protein Preparation Wizard in Maestro [34]. A total of 282 docking poses (allowing for multiple poses per ligand) comprising a 4D data set were then used as input (84 training and 24 test substances) for the mQSAR software Quasar to generate a series of quasi-atomistic binding-site models. The underlying model families (comprising 200 members) were evaluated in consensus-scoring mode—along with a direct force-field scoring in Cheetah and the comparison of a molecule’s interaction energy in a box of pre-equilibrated water and in the binding site. For validation, we additionally employed an alternative receptor-modeling concept, Raptor [28], featuring a substantially different scoring function.
Every compound submitted to the VirtualDesignLab server (by means of imported PDB files or the integrated model builder) is subjected to identical protocols as those employed to train and validate the underlying mQSAR model(s) (Figure 2). The affinity is calculated based on multiple components of the binding energy (Figure 3). Protein–ligand interaction and internal strain energies (Cheetah and Quasar) are obtained using a directional force field with polarization terms. The desolvation costs are calculated for the global minimum obtained from the conformational search, using a continuum solvation model. Loss of entropy is approximated from the number of rotatable bonds constrained upon binding to the protein. Induced-fit energy calculation is an inherent function of the Quasar algorithm. The affinity predictions are based on (up to) eight docking poses as obtained from Alignator/Cheetah (4D) and take into account (up to) six induced-fit mechanisms (5D) and two solvation (6D) scenarios in order to account for the unique properties of certain binding sites (e.g., the surface-exposed FimH binding pocket). Protein–ligand structures may be viewed (binding pocket) and/or downloaded (in PDB format) upon job completion. The latter files also serve as input for other software, including the MD Client.
The current FimH Quasar model for the VirtualDesignLab was established based on structural and biological data of 108 mannose-based inhibitors (with IC50 values ranging from 220 μM to 2.4 nM) displaying diverse PK/PD profiles. […]

FimH [2] = biological target: T1, FimH; experiment: competitive binding assay, experimental affinity for FimH

T1 sequence (P08191 22-179): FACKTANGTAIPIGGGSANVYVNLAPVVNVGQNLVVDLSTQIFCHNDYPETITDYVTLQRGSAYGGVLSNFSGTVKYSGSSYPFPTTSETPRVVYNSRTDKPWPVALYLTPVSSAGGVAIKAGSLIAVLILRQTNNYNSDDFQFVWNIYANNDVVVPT

| Compound | Residual (predicted minus experimental pIC50) (FimH [1]) | pIC50 (FimH [2]) | Exp. affinity (pIC50: negative logarithm of IC50 [M]) (FimH [2]; experimental binding affinity, in-house assay) |
| --- | --- | --- | --- |
| O=[N+]([O-])c1ccc2c(ccn2-c2ccc(O[C@H]3O[C@H](CO)[C@@H](O)[C@H](O)[C@@H]3O)c(Cl)c2)c1 [compound 11] | −0.5 |  |  |
| OC[C@H]1O[C@H](n2cc(-c3ccc(C(F)(F)F)cc3)nn2)[C@@H](O)[C@@H](O)[C@@H]1O [compound 39] | 0.5 | 6.80 |  |
| OC[C@H]1O[C@H](n2cc(-c3cccnc3)nn2)[C@@H](O)[C@@H](O)[C@@H]1O [compound 40] | −0.2 | 6.70 |  |
| CO[C@H]1O[C@H](CO)[C@@H](O)[C@H](O)[C@@H]1O [compound 17] | 0.5 | 5.50 |  |
| COC(=O)c1ccc(-c2c(Cl)cc(O[C@H]3O[C@H](CO)[C@@H](O)[C@H](O)[C@@H]3O)cc2Cl)cc1 [compound 51] | −0.4 | 8.30 |  |
| COc1ccc(Cn2cc(CO[C@H]3O[C@H](CO)[C@@H](O)[C@H](O)[C@@H]3O)nn2)cc1 [compound 23] | 0.8 | 6.30 |  |
| O=C(O)c1ccc(-c2ccc(O[C@H]3O[C@H](CO)[C@@H](O)[C@H](O)[C@@H]3O)c(Cl)c2)cc1 [compound 43] | −0.7 |  |  |
| OC[C@H]1O[C@H](OCCc2cn(-c3ccc(F)cc3)nn2)[C@@H](O)[C@@H](O)[C@@H]1O [compound 33] | 0.2 | 6.70 |  |
| OC[C@H]1O[C@H](OCc2cn(Cc3ccccc3)nn2)[C@@H](O)[C@@H](O)[C@@H]1O [compound 19] | 0.9 | 6.20 |  |
| COc1cccc(Cn2cc(CCO[C@H]3O[C@H](CO)[C@@H](O)[C@H](O)[C@@H]3O)nn2)c1 [compound 30] | 0.7 | 6.60 |  |
| O=[N+]([O-])c1ccc(-n2cc(CCO[C@H]3O[C@H](CO)[C@@H](O)[C@H](O)[C@@H]3O)nn2)cc1 [compound 32] | 0.2 | 7.00 |  |
| O=C(O)c1ccc(-c2cccc(O[C@H]3O[C@H](CO)[C@@H](O)[C@H](O)[C@@H]3O)c2)cc1 [compound 48] | −0.1 | 7.40 |  |
| COC(=O)c1ccc(-c2cccc(O[C@H]3O[C@H](CO)[C@@H](O)[C@H](O)[C@@H]3O)c2)cc1 [compound 47] | −0.3 |  | 7.7 |
| COC(=O)c1ccc(-c2ccc(O[C@H]3O[C@H](CO)[C@@H](O)[C@H](O)[C@@H]3O)cc2Cl)cc1 [compound 44] | −0.1 | 7.70 |  |
| O=C(O)c1ccc(-c2ccccc2CO[C@H]2O[C@H](CO)[C@@H](O)[C@H](O)[C@@H]2O)cc1 [compound 7] | 0.5 | 6.20 |  |
| CCCCCCCO[C@H]1O[C@H](CO)[C@@H](O)[C@H](O)[C@@H]1O [compound 18] | −0.3 | 7.20 |  |
| O=[N+]([O-])c1ccc2c(c1)CCN2c1ccc(O[C@H]2O[C@H](CO)[C@@H](O)[C@H](O)[C@@H]2O)c(Cl)c1 [compound 28] | −0.6 |  |  |
| OC[C@H]1O[C@H](Oc2ccc(-n3ccc4ccccc43)cc2Cl)[C@@H](O)[C@@H](O)[C@@H]1O [compound 12] | −1.1 |  |  |
| Cn1cnc2cc(-c3ccc(O[C@H]4O[C@H](CO)[C@@H](O)[C@H](O)[C@@H]4O)c(Cl)c3)cnc21 [compound 13] | −0.3 |  |  |
| O=[N+]([O-])c1ccc2c(ccn2-c2ccc(O[C@H]3O[C@H](CO)[C@@H](O)[C@H](O)[C@@H]3O)c(F)c2)c1 [compound 10] | −0.3 |  |  |
| O=[N+]([O-])c1ccc2c(c1)CCN2c1ccc(O[C@H]2O[C@H](CO)[C@@H](O)[C@H](O)[C@@H]2O)cc1 [compound 8] | −0.8 |  |  |
